These molecules were tested on Aβ42 (assay: Quantification of Aβ peptide in culture of neurons from rat fetus brain (Aβ ELISA)). Details: Primary cortical neuron, 72 h, IC50 for decrease in the Aβ42 concentration in the medium, three days after addition of the compound, read-out: Aβ42 production reducing effect.
Format: cell-based
Description: Quantification of Aβ Peptide in Culture of Neurons from Rat Fetus Brain
(1) Rat Primary Neuronal Culture
Primary neuronal cultures were prepared from the cerebral cortex of embryonic day 18 Wistar rats (Charles River Japan, Yokohama, Japan). Specifically, the embryos were aseptically removed from pregnant rats under ether anesthesia. The brain was isolated from the embryo and immersed in an ice-cold L-15 medium (such as Invitrogen Corp. Cat #11415-064, Carlsbad, Calif., USA, or SIGMA L1518). The cerebral cortex was collected from the isolated brain under a stereoscopic microscope. The cerebral cortex fragments collected were enzymatically treated in an enzyme solution containing 0.25% trypsin (Invitrogen Corp. Cat #15050-065, Carlsbad, Calif., USA) and 0.01% DNase (Sigma D5025, St. Louis, Mo., USA) at 37° C. for 30 minutes to disperse the cells. Here, the enzymatic reaction was stopped by adding inactivated horse serum to the solution. The enzymatically treated solution was centrifuged at 1,500 rpm for five minutes to remove the supernatant. 5 to 10 ml of a medium was added to the resulting cell mass. Neurobasal medium (Invitrogen Corp. Cat #21103-049, Carlsbad, Calif., USA) supplemented with 2% B27 supplement (Invitrogen Corp. Cat #17504-044, Carlsbad, Calif., USA), 25 μM 2-mercaptoethanol (2-ME, WAKO Cat #139-06861, Osaka, Japan), 0.5 mM L-glutamine (Invitrogen Corp. Cat #25030-081, Carlsbad, Calif., USA), and Antibiotics-Antimycotics (Invitrogen Corp. Cat #15240-062, Carlsbad, Calif., USA) was used as the medium (Neurobasal/B27/2-ME). However, the above Neurobasal medium not supplemented with 2-ME (Neurobasal/B27) was used for the assay. The cells were redispersed by mild pipetting of the cell mass to which the medium was added. The cell dispersion was filtered through a 40-μm nylon mesh (Cell Strainer, Cat #35-2340, Becton Dickinson Labware, Franklin Lakes, N.J., USA) to remove the remaining cell mass, and thus a neuronal cell suspension was obtained. The neuronal cell suspension was diluted with the medium and then plated in a volume of 100 μl/well at an initial cell density of 5×10^5 cells/cm^2 in a 96-well polystyrene culture plate pre-coated with poly-L or D-lysine (Falcon Cat #35-3075, Becton Dickinson Labware, Franklin Lakes, N.J., USA coated with poly-L-lysine using the method shown below, or BIOCOAT™ cell environments Poly-D-lysine cell ware 96-well plate, Cat #35-6461, Becton Dickinson Labware, Franklin Lakes, N.J., USA). Poly-L-lysine coating was carried out as follows. 100 μg/ml of a poly-L-lysine (SIGMA P2636, St. Louis, Mo., USA) solution was aseptically prepared with a 0.15 M borate buffer (pH 8.5). […] of the solution was added to the 96-well polystyrene culture plate and incubated at room temperature for one or more hours or at 4° C. overnight or longer. Thereafter, the coated 96-well polystyrene culture plate was washed with sterile water four or more times, and then dried or rinsed with, for example, sterile PBS or medium, and used for cell plating. The plated cells were cultured in the incubator at 37° C. in 5% CO2-95% air for one day. Then, the total amount of the medium was replaced with a fresh Neurobasal/B27/2-ME medium, and then the cells were cultured for further three days.
The drug was added to the culture plate on Day 4 of culture as follows. The total amount of the medium was removed from the wells, and 180 μl/well of Neurobasal medium not containing 2-ME and containing 2% B-27 (Neurobasal/B27) was added thereto. […]

In order of falling IC50:
1. NC1=NC2(CCOc3ccc(NC(=O)c4ccc(C(F)(F)F)cn4)cc32)CCS1 (centres unmarked) [Compound 12, N-(2′-amino-2,3,5′,6′-tetrahydrospiro[chromene-4,4′-[1,3]thiazin]-6-yl)-5-trifluoromethylpyridine-2-carboxamide]  71 nM
2. NC1=NC2(CCOc3ccc(NC(=O)c4ncc(Br)cn4)cc32)CCS1 (centres unmarked) [Compound 15, N-(2′-amino-2,3,5′,6′-tetrahydrospiro[chromene-4,4′-[1,3]thiazin]-6-yl)-5-bromopyrimidine-2-carboxamide]  63 nM
3. N#Cc1ccc(C(=O)Nc2ccc3c(c2)C2(CCO3)CCSC(N)=N2)nc1 (stereo not drawn) [Compound 11, (−)—N-(2′-amino-2,3,5′,6′-tetrahydrospiro[chromene-4,4′-[1,3]thiazin]-6-yl)-5-cyanopyridine-2-carboxamide]  53 nM
4. NC1=NC2(CCOc3ccc(NC(=O)c4ncc(Cl)cc4Cl)cc32)CCS1 (centres unmarked) [Compound 18, N-(2′-amino-2,3,5′,6′-tetrahydrospiro[chromene-4,4′-[1,3]thiazin]-6-yl)-3,5-dichloropyridine-2-carboxamide]  47 nM
5. NC1=NC2(CCOc3ccc(NC(=O)c4ccc(Br)cn4)cc32)CCS1 (centres unmarked) [Compound 16, N-(2′-amino-2,3,5′,6′-tetrahydrospiro[chromene-4,4′-[1,3]thiazin]-6-yl)-5-bromopyridine-2-carboxamide]  27 nM

— patent publication US8501733B2, “Spiroaminodihydrothiazine derivatives” (Eisai R&D Management Co., Ltd., priority 2008, dated 2013)
